In patent US20220233512A1, “INHIBITING AN IMMUNE RESPONSE MEDIATED BY ONE OR MORE OF TLR2, RAGE, CCR5, CXCR4 AND CD4” (priority 2020, published 2022):

Key:
[1] = system: tau; assay: Tau phosphorylation in Ab42-treated organotypic frontocortical slice cultures; format: cell-based; settings: Ab42-treated rat organotypic frontocortical slice cultures
Experimental: Rat brain slice organotypic culture methods were modified from those published previously. [Adamchik et al., Brain Res Brain Res Protoc 5:153-158 (2000).] FCX slices ([…]) were transferred to sterile, porous Millicell-CM inserts (0.4 mm). Each culture insert unit contained two brain slices and was placed into individual wells of a 12-well culture tray in 2 ml medium: 50% MEM with Earl's salts, 2 mM L-glutamine, 25% Earl's balanced salt solution, 6.5 g/l D-glucose, 20% fetal bovine serum (FBS), 5% horse serum, 25 mM HEPES buffer, pH 7.2, and […] streptomycin and […] penicillin. Cultures were kept in an incubator for 2 days at 36° C. in 5% CO2 to minimize the impact of injury from slice preparation.
On the day of experiment, medium was removed, the brain slices rinsed and incubated in 0.1% FBS-containing medium for 4 hours at 36° C. in 5% CO2. Brain slices were then cultured with 100 nM Ab42 and/or 0.1, 1 nM compound C0105 or compound C0114 in fresh 0.1% FBS-containing medium for 16 hours. […]
(§1) The levels of phosphorylated tau (pSer202tau, pThr231tau and pThr181tau) as well as total tau precipitated (loading controls) are assessed by Western blotting using specific antibodies directed against each of the phosphor-epitopes and the anti-tau, respectively.

[2] = system: mild-to-moderate AD patients; assay: Clinical studies of sumifilam in Alzheimer's disease patients; format: in vivo, human
Excerpt: FIG. 7, in two panels as FIGS. 7A and 7B, graphically illustrates some of the results of a Phase 2b Clinical study of the effects of Compound C0105, now known as sumifilam, on 64 mild-to-moderate AD patients, mini-mental state examination (MMSE) value of ≥16≤26, age 50-85 years, with a key inclusion at screening of CFS Total tau/ab≥0.28. The patients were divided into three groups, and each group was given one of three tablet dosages twice daily for 28 days. One patient group received a placebo, another received tablets containing 50 mg of sumifilam and the third received tablets containing 100 mg of sumifilam. Lumbar puncture screening of CFS and blood were taken prior to any administration and at day 28. […] FIG. 7B repeats the results shown in FIG. 7A and includes results for the additional neuroinflammation markers YKL-40 (a glycoprotein produced by inflammatory, cancer and stem cells), interleukin-6 (IL-6), soluble triggering receptor expressed on myeloid cells 2 (sTREM2), albumin (a marker for blood-brain-barrier permeability) and IgG antibodies. Stronger significance levels occurred in the 100 mg group. Data are means±SEM. *p≤0.0001, #p≤0.001, †p<0.01 and +p<0.05 versus placebo. N=22, 18 and 19 for placebo, 50 mg and 100 mg, respectively. […]

[3] = target: FLNA interactions with CXCR4, CD4 and CCR5 (Homo sapiens, UniProt P21333); assay: FLNA interactions with CXCR4, CD4 and CCR5 in lymphocytes (western blot); settings: 1 nM; lymphocytes of Ab42-treated young control subject and of AD patient
Sequence of FLNA interactions with CXCR4, CD4 and CCR5 (P21333 2-2647 limits assumed): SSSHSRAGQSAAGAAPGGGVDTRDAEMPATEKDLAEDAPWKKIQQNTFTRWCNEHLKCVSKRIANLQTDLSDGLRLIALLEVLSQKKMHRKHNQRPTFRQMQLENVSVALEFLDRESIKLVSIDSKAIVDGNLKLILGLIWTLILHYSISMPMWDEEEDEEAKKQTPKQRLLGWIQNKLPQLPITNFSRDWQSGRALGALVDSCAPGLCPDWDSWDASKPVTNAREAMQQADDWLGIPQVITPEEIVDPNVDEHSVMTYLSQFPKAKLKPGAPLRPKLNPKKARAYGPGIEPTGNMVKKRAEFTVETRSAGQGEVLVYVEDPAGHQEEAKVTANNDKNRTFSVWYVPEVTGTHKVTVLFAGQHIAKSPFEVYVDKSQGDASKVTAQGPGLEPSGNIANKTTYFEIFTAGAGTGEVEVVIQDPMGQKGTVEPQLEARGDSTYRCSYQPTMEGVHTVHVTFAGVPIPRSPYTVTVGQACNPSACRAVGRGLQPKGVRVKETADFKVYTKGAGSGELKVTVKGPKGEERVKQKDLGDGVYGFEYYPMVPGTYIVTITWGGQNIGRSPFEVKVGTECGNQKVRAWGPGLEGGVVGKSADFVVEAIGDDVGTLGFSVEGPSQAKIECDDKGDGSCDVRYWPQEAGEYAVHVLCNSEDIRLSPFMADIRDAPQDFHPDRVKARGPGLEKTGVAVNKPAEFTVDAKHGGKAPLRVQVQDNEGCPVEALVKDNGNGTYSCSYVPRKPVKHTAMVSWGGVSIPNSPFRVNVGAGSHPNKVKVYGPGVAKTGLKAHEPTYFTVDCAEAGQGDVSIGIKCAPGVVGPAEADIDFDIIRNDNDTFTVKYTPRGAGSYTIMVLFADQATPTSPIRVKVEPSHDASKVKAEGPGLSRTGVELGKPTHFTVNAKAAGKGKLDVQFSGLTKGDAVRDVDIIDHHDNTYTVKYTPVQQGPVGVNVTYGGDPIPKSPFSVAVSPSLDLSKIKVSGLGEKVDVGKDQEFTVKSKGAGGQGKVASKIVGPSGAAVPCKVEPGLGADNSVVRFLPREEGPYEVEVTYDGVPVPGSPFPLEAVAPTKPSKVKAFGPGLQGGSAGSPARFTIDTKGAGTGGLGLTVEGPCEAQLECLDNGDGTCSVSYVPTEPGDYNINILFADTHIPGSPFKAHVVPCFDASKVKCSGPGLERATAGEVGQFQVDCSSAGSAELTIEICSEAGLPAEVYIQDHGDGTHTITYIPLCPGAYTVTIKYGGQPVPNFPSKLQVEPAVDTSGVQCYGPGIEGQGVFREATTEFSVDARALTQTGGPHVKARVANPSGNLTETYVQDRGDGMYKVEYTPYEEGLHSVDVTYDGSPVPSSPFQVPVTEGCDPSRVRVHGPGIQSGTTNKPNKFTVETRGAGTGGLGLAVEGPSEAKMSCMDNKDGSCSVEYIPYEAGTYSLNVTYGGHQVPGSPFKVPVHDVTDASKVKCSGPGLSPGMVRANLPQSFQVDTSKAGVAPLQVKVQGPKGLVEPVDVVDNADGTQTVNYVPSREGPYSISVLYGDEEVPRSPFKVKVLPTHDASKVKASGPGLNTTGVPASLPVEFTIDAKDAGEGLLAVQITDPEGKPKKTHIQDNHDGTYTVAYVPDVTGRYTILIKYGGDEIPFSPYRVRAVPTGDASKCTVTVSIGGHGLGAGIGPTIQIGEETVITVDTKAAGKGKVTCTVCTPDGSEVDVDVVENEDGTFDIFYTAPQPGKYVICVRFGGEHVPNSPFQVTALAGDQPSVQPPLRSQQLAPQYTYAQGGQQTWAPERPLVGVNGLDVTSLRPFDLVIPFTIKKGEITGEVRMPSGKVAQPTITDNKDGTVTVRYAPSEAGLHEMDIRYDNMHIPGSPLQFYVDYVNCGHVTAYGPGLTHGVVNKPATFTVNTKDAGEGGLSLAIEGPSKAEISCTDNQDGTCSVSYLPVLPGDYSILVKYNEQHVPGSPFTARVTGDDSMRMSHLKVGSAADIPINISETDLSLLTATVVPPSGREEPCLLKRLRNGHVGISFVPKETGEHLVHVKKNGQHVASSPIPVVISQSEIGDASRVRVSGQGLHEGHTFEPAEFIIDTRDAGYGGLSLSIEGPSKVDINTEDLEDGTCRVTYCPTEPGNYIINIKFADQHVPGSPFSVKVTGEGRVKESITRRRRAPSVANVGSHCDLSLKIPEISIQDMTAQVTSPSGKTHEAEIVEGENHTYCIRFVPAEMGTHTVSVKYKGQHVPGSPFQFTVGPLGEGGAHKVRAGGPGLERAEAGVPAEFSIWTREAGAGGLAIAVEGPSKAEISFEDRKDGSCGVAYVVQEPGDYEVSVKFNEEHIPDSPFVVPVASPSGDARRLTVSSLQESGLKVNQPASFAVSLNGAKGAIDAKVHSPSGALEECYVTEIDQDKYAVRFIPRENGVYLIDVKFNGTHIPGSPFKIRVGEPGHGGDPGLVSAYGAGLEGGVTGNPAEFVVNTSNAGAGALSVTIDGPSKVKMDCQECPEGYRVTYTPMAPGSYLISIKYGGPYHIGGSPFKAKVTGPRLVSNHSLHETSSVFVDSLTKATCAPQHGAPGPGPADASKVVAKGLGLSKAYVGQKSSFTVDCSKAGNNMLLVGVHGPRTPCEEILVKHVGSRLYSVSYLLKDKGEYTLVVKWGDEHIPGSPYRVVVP

[4] = system: tau; assay: Tau phosphorylation in human postmortem frontal cortex slices; format: cell-based; settings: 1 or 10 nM compound
Experimental: As will be seen from examination of FIG. 3 and FIG. 4, the ratio of TLR2 to FLNA increased with administration of each of LTA-SA, PGN-SA and Ab42 at a statistically significant amount relative to the control (p<0.01). Those changes in expression of TLR2 relative to FLNA were each inhibited by the presence of the 1 or 10 nM Compound C0105 at a statistically significant amount relative to the control (p<0.01) and relative to the ligand used. See, FIG. 3B.
A slight inhibition (about 25% or less) of that enhanced tau phosphorylation was provided by contacting the cells with 1 or 10 nM Compound C0105. […] See, FIGS. 4A and 4B.
as §1

CN1CCC2(CC1)NCC(=O)N2Cc1ccccc1 [Compound C0105M]
Phosphorylation of tau at all three phosphorylation sites [1]: dramatically reduces phosphorylation of tau | Immunoinflammatory cytokines in treated patients ([2]; 50 or 100 mg twice daily, 28-day and 6-month studies): reduction in the immunoinflammatory cytokines | Amount of HMGB1 in CSF ([2]; Phase 2b, 50 mg or 100 mg tablets twice daily for 28 days, p<0.001 relative to placebo): decreased significantly | FLNA linkages with CXCR4, CD4 and CCR5 (in words) [3]: reduced these linkages | Inhibition of LTA-SA- or PGN-SA-enhanced tau phosphorylation [4]: ≤ 25% | Ab42-induced tau phosphorylation (in words) ([4]; 0.1 micromolar Ab42): statistically significant reduction
